{"source": "paper PMC10298926", "about": "“Biophysical Characterization of the Binding Mechanism between the MATH Domain of SPOP and Its Physiological Partners” (International Journal of Molecular Sciences, 2023)", "key": {"[1]": {"target": "T1, SPOP MATH Y125A (Homo sapiens, UniProt O43791, Y123A, form not given)", "assay": "Stopped-flow displacement", "assay_type": "binding", "conditions": "displacement of dansylated Puc, 298 K", "from_the_text": "(§1) To quantitatively address the role of specific residues in the binding mechanism of SPOP MATH, we resorted to taking advantage of the site-directed mutagenesis and generated ten site-directed mutants corresponding to the residues located in the binding pocket of the SPOP MATH domain. In particular, we produced a set of single mutants where residues R71, Y88, F103, Y124, F125, K130, D131, W132, F134, and K135 were substituted with alanine.\n(§2) Microscopic dissociation rate constants (koff) were directly measured by performing displacement experiments on an Applied Photophysics DX-17MV stopped-flow apparatus (Applied Photophysics). A preincubated complex of MATH domain and dansylated peptides at a constant concentration (both 8 µM) was rapidly mixed with an excess of nondansylated peptides (50 μM). The samples were excited at 280 nm and fluorescence emission was collected by using a 330 ± 30 nm bandpass filter. The experiments were performed at 298 K in the same buffer used for the binding experiments. The observed rate constants were calculated from the average of five single traces. The observed kinetics were consistent with a single exponential decay."}, "[2]": {"target": "T2, SPOP MATH K130A (Homo sapiens, UniProt O43791, C159S/C23S/C44S/C68S/C93S/K129A)", "T2 construct": "engineered MATH domain of SPOP protein (residues 1–182); His-tag; made in house; host or cells: Escherichia coli BL21 (DE3)", "T2 sequence (O43791 1-182 C23S/C44S/C68S/C93S/K129A/C159S)": "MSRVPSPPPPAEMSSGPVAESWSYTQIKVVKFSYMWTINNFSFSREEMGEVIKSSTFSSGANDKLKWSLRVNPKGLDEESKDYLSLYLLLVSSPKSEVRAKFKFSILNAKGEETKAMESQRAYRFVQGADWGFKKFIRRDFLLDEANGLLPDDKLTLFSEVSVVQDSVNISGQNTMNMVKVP", "assay": "Stopped-flow displacement", "assay_type": "binding", "from_the_text": "as §1, §2"}, "[3]": {"target": "SPOP MATH K130A (Homo sapiens, UniProt O43791, K129A, form not given)", "assay": "Stopped-flow pseudo-first-order binding kinetics", "conditions": "dansylated Puc, 298 K", "protocol": "as §1\n(§3) Binding kinetic experiments were performed on an Applied Photophysics DX-17MV stopped-flow apparatus (Applied Photophysics, Leatherhead, UK). Pseudo-first-order binding experiments were performed by mixing a constant concentration (2 μM) of MATH domain with increasing dansylated peptides concentrations, from 2 to 10 μM of Puc and MacroH2A, and 2 to 40 µM of PTEN. The samples were excited at 280 nm, and the emission fluorescence was recorded by using a bandpass 320 nm cutoff filter. The experiments were performed at 298 K. For ionic strength dependence with Puc and MacroH2A, the buffers used were 50 mM sodium-HEPES, pH 7.2, supplemented with 50 mM, 100 mM, 200 mM, or 500 mM of sodium chloride (NaCl). For the PTEN binding salt dependence experiments, lower concentrations of salt were added for the previous buffer list mentioned (10 mM, 25 mM, and 50 mM of sodium chloride). For each acquisition, five traces were collected, averaged, and satisfactorily fitted to a single exponential equation."}, "[4]": {"target": "T1, SPOP MATH Y125A", "assay": "Stopped-flow pseudo-first-order binding kinetics", "conditions": "dansylated Puc, 298 K", "protocol": "as §1, §3"}, "[5]": {"target": "SPOP MATH D131A (Homo sapiens, UniProt O43791, D130A, form not given)", "assay": "Stopped-flow pseudo-first-order binding kinetics", "conditions": "dansylated Puc, 298 K", "protocol": "as §1, §3"}, "[6]": {"target": "SPOP MATH F134A (Homo sapiens, UniProt O43791, F133A, form not given)", "assay": "Stopped-flow pseudo-first-order binding kinetics", "conditions": "dansylated Puc, 298 K", "protocol": "as §1, §3"}, "[7]": {"target": "T3, SPOP MATH K135A (Homo sapiens, UniProt O43791, C159S/C44S/C68S/C93S/K134A)", "T3 construct": "engineered MATH domain of SPOP protein (residues 1–182); His-tag; made in house; host or cells: Escherichia coli BL21 (DE3)", "assay": "Stopped-flow pseudo-first-order binding kinetics", "conditions": "dansylated Puc, 298 K", "protocol": "as §1, §3"}, "[8]": {"target": "SPOP MATH Y88A (Homo sapiens, UniProt O43791, Y87A, form not given)", "assay": "Stopped-flow pseudo-first-order binding kinetics", "conditions": "dansylated Puc, 298 K", "protocol": "as §1, §3"}, "[9]": {"target": "SPOP MATH R71A (Homo sapiens, UniProt O43791, R70A, form not given)", "assay": "Stopped-flow pseudo-first-order binding kinetics", "conditions": "dansylated Puc, 298 K", "protocol": "as §1, §3"}, "[10]": {"target": "SPOP MATH WT (Homo sapiens, UniProt O43791)", "sequence (O43791 1-182)": "as the sequence (O43791 1-182 C23S/C44S/C68S/C93S/K129A/C159S) above, with S23C, S44C, S68C, S93C, A129K, S159C counted along it", "assay": "Equilibrium binding, FRET (Trp to dansyl), fluorescence titration", "conditions": "read-out: Equilibrium KD; dansylated peptide 0 to 40 µM; constant SPOP MATH WT (2 µM in methods, 1 µM in results); excitation 280 nm, emission 300-400 nm; 298 K; hyperbolic fit", "from_the_text": "The MATH domain of SPOP exerts its functions by specifically recognizing different substrates and, therefore, acting as an adaptor module between SPOP and its physiological ligands. In an effort to provide a complete characterization of SPOP MATH binding mechanisms, we investigated the recognition of three peptides mimicking a specific region of the substrates Puc (region 96–105), MacroH2A (region 166–179), and PTEN (region 354–368). […] Moreover, the three-dimensional structure of SPOP MATH in complexes with each of the peptides has been previously reported (3HQH, 3HQL, and 4OV1 PDB entries, respectively). Similar to previous work on other protein–protein recognition modules, we employed peptides carrying a covalently attached N-terminal dansyl fluorophore. Binding was then followed by measuring the FRET (Forster resonance energy transfer) between the three tryptophan residues of the SPOP MATH domain (donor) and the dansyl group of the peptides (acceptor).\nTo address the equilibrium binding affinity of SPOP MATH and its substrates, a fixed concentration of the protein (1 µM) was challenged with increasing peptide concentrations. In all cases, the fluorescence-monitored transition returned a hyperbolic behavior as described in the Section 4, which allowed estimating a dissociation constant of 1.4 ± 0.4 µM, 1.6 ± 0.2 µM, and 5.5 ± 0.5 µM for Puc, MacroH2A, and PTEN, respectively (Figure 2). These values appear partly consistent with what was previously reported by Zhuang et al. by using surface plasmon resonance. […]\nEquilibrium binding experiments were performed on a Fluoromax-4 single-photon-counting spectrofluorometer (Jobin-Yvon, Newark, NJ, USA). The SPOP MATH domain was excited at 280 nm and emission spectra were recorded between 300 and 400 nm, at increasing dansylated peptide concentrations. […]"}}, "note": "Where a SMILES comes first, the peptide text is derived from it.", "data": [{"compound": "CC(C)[C@H](NC(=O)[C@H](CCC(=O)O)NC(=O)[C@H](CC(=O)O)NS(=O)(=O)c1cccc2c(N(C)C)cccc12)C(=O)N[C@H](C(=O)N[C@@H](CO)C(=O)N[C@H](C(=O)N[C@H](C(=O)N[C@@H](CO)C(=O)N[C@@H](CO)C(=O)N[C@@H](CO)C(=O)O)[C@@H](C)O)[C@@H](C)O)[C@@H](C)O", "note": "[Puc] (HELM PEPTIDE1{[CN(C)c1cccc2c(S(=O)(=O)[*:2])cccc12].D.E.V.T.S.T.T.S.S.S}$$$$V2.0)", "values": [{"measurement": "koff", "setting": "[1]", "value": "78.0 ± 0.2", "unit": "s⁻¹"}, {"measurement": "koff", "setting": "[2]", "value": "123 ± 16", "unit": "s⁻¹"}, {"measurement": "Kd", "setting": "[3]; kinetic KD from kon and koff", "value": "9.5 ± 0.1", "unit": "µM"}, {"measurement": "kon", "setting": "[3]; stopped-flow, 2 µM MATH domain", "value": "1.3e+07 ± 2e+06", "unit": "M⁻¹ s⁻¹"}, {"measurement": "Kd", "setting": "[4]; kinetic KD from kon and koff", "value": "11.7 ± 0.2", "unit": "µM"}, {"measurement": "kon", "setting": "[4]; stopped-flow, 2 µM MATH domain", "value": "6.71e+06 ± 20000", "unit": "M⁻¹ s⁻¹"}, {"measurement": "Kd", "setting": "[5]; kinetic KD from kon and koff", "value": "13.3 ± 0.2", "unit": "µM"}, {"measurement": "kon", "setting": "[5]; stopped-flow, 2 µM MATH domain", "value": "1.82e+07 ± 100000", "unit": "M⁻¹ s⁻¹"}, {"measurement": "Kd", "setting": "[6]; kinetic KD from kon and koff", "value": "1.7 ± 0.1", "unit": "µM"}, {"measurement": "kon", "setting": "[6]; stopped-flow, 2 µM MATH domain", "value": "9.4e+06 ± 200000", "unit": "M⁻¹ s⁻¹"}, {"measurement": "Kd", "setting": "[7]; kinetic KD from kon and koff", "value": "7.2 ± 0.4", "unit": "µM"}, {"measurement": "kon", "setting": "[7]; stopped-flow, 2 µM MATH domain", "value": "6.3e+06 ± 500000", "unit": "M⁻¹ s⁻¹"}, {"measurement": "Kd", "setting": "[8]; kinetic KD from kon and koff", "value": "21 ± 4", "unit": "µM"}, {"measurement": "kon", "setting": "[8]; stopped-flow, 2 µM MATH domain", "value": "1.44e+07 ± 800000", "unit": "M⁻¹ s⁻¹"}, {"measurement": "Kd", "setting": "[9]; kinetic KD from kon and koff", "value": "3.8 ± 0.1", "unit": "µM"}, {"measurement": "kon", "setting": "[9]; stopped-flow, 2 µM MATH domain", "value": "8.8e+06 ± 500000", "unit": "M⁻¹ s⁻¹"}, {"measurement": "Kd", "setting": "[10]", "value": "1.4 ± 0.5", "unit": "µM"}]}]}
